# Reference: patent US20050282154A1 (priority 2003, published 2005)
# Key:
# [1] = tested on: SARS-CoV S protein-expressing 293 T cells and ACE-2-expressing 293 T cells; format: cell-based, human
# [2] = tested on: S1 domain of the SARS-CoV S protein; format: binding
substance,measurement,setting,value
soluble ACE-2,blocking of syncytia formation mediated by the SARS-CoV S protein,[1],partially blocked
same,blocking of association of S1-Ig (S1 domain) with Vero E6 cells,[2],blocked association
